# Experiments:
# [1] = system: pigweed; test: Test B pre/postemergence pigweed; assay type: in vivo, Amaranthus retroflexus
# In short: (§1)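 Test chemicals in a non-phytotoxic solvent mixture with surfactant were sprayed preemergence onto planted seeds and postemergence onto plants 2 to 18 cm tall (1- to 4-leaf stage). After twelve to sixteen days in a greenhouse, injury was visually rated against untreated controls from 0 (no effect) to 10 (complete control).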
# [2] = system: blackgrass; test: Test B pre/postemergence blackgrass; assay type: in vivo, Alopecurus myosuroides
# In short: as §1
# [3] = system: cocklebur; test: Test B pre/postemergence cocklebur; assay type: in vivo, Xanthium strumarium
# In short: as §1
# [4] = system: corn; test: Test B pre/postemergence corn; assay type: in vivo, Zea mays
# In short: as §1
# [5] = system: velvetleaf; test: Test B pre/postemergence velvetleaf; assay type: in vivo, Abutilon theophrasti
# In short: as §1
# [6] = system: surinam grass; test: Test B pre/postemergence surinam grass; assay type: in vivo, Brachiaria decumbens
# In short: as §1
# [7] = system: rape; test: Test B pre/postemergence rape; assay type: in vivo, Brassica napus
# In short: as §1
# [8] = system: soybean; test: Test B pre/postemergence soybean; assay type: in vivo, Glycine max
# In short: as §1
# [9] = system: crabgrass; test: Test B pre/postemergence crabgrass; assay type: in vivo, Digitaria sanguinalis
# In short: as §1
# [10] = system: purple nutsedge; test: Test B pre/postemergence purple nutsedge; assay type: in vivo, Cyperus rotundus
# In short: as §1
# [11] = system: giant foxtail; test: Test B pre/postemergence giant foxtail; assay type: in vivo, Setaria faberii
# In short: as §1
# [12] = system: wild oat; test: Test B pre/postemergence wild oat; assay type: in vivo, Avena fatua
# In short: as §1
# [13] = system: wheat; test: Test B pre/postemergence wheat; assay type: in vivo, Triticum aestivum
# In short: as §1
# [14] = system: bedstraw; test: Test B pre/postemergence bedstraw; assay type: in vivo, Galium aparine
# In short: as §1
# [15] = system: morningglory; test: Test B pre/postemergence morningglory; assay type: in vivo, Ipomoea hederacea
# In short: as §1
# [16] = Postemergence, Rate 62 g/ha, scale 0 to 10, 0 is no effect, 10 is complete control
# [17] = Postemergence, Rate 250 g/ha, scale 0 to 10, 0 no effect, 10 complete control
# [18] = Preemergence, Rate 62 g/ha, scale 0 to 10 (0 no effect, 10 complete control)
# [19] = Preemergence, Rate 125 g/ha, scale 0 to 10 (0 no effect, 10 complete control)
# [20] = Preemergence, Rate 250 g/ha, scale of 0 to 10 where 0 is no effect and 10 is complete control
# [21] = Preemergence, Rate 500 g/ha, scale 0 (no effect) to 10 (complete control)
# [22] = Rate 125 g/ha, Postemergence, scale 0 to 10, 0 no effect, 10 complete control
# [23] = Rate 500 g/ha, Postemergence, scale 0 to 10, 0 no effect, 10 complete control
structure (smiles),measurement,setting,value
Cc1ccccc1Cn1c(=O)on(C(=O)N(c2ccc(F)cc2F)C(C)C)c1=O [Compound 87],Redroot pigweed plant response rating,[1]; [16],0
same,Redroot pigweed plant response rating,[1]; [17],5
same,Redroot pigweed plant response rating,[1]; [18],4
same,"Plant response rating, Redroot pigweed",[1]; [19],4
same,"Plant response rating, Redroot pigweed",[1]; [20],8
same,Redroot pigweed plant response rating,[1]; [21],10
same,Redroot pigweed plant response rating,[1]; [22],0
same,Redroot pigweed plant response rating,[1]; [23],2
same,Blackgrass plant response rating,[2]; [16],0
same,Blackgrass plant response rating,[2]; [17],1
same,Blackgrass plant response rating,[2]; [18],2
same,"Plant response rating, Blackgrass",[2]; [19],3
same,"Plant response rating, Blackgrass",[2]; [20],5
same,Blackgrass plant response rating,[2]; [21],7
same,Blackgrass plant response rating,[2]; [22],0
same,Blackgrass plant response rating,[2]; [23],4
same,Cocklebur plant response rating,[3]; [16],0
same,Cocklebur plant response rating,[3]; [17],2
same,Cocklebur plant response rating,[3]; [18],0
same,"Plant response rating, Cocklebur",[3]; [19],0
same,"Plant response rating, Cocklebur",[3]; [20],0
same,Cocklebur plant response rating,[3]; [21],0
same,Cocklebur plant response rating,[3]; [22],1
same,Cocklebur plant response rating,[3]; [23],2
same,Corn plant response rating,[4]; [16],0
same,Corn plant response rating,[4]; [17],0
same,Corn plant response rating,[4]; [18],0
same,"Plant response rating, Corn",[4]; [19],0
same,"Plant response rating, Corn",[4]; [20],0
same,Corn plant response rating,[4]; [21],2
same,Corn plant response rating,[4]; [22],0
same,Corn plant response rating,[4]; [23],2
same,Velvetleaf plant response rating,[5]; [16],0
same,Velvetleaf plant response rating,[5]; [17],0
same,Velvetleaf plant response rating,[5]; [18],0
same,"Plant response rating, Velvetleaf",[5]; [19],0
same,"Plant response rating, Velvetleaf",[5]; [20],3
same,Velvetleaf plant response rating,[5]; [21],0
same,Velvetleaf plant response rating,[5]; [22],0
same,Velvetleaf plant response rating,[5]; [23],1
same,B. signalgrass plant response rating,[6]; [16],0
same,B. signalgrass plant response rating,[6]; [17],0
same,B. signalgrass plant response rating,[6]; [18],0
same,"Plant response rating, B. signalgrass",[6]; [19],2
same,"Plant response rating, B. signalgrass",[6]; [20],4
same,B. signalgrass plant response rating,[6]; [21],5
same,B. signalgrass plant response rating,[6]; [22],0
same,B. signalgrass plant response rating,"[6]; Rate 500 g/ha, Postemergence, scale of 0 to 10 where 0 is no effect and 10 is complete control",2
same,Rape plant response rating,[7]; [16],0
same,Rape plant response rating,[7]; [17],2
same,Rape plant response rating,[7]; [18],0
same,"Plant response rating, Rape",[7]; [19],0
same,"Plant response rating, Rape",[7]; [20],0
same,Rape plant response rating,[7]; [21],5
same,Rape plant response rating,[7]; [22],0
same,Rape plant response rating,[7]; [23],3
same,Soybean plant response rating,[8]; [16],2
same,Soybean plant response rating,[8]; [17],2
same,Soybean plant response rating,[8]; [18],0
same,"Plant response rating, Soybean",[8]; [19],0
same,"Plant response rating, Soybean",[8]; [20],0
same,Soybean plant response rating,[8]; [21],4
same,Soybean plant response rating,[8]; [22],2
same,Soybean plant response rating,[8]; [23],5
same,Crabgrass plant response rating,[9]; [16],2
same,Crabgrass plant response rating,[9]; [17],5
same,Crabgrass plant response rating,[9]; [18],5
same,"Plant response rating, Crabgrass",[9]; [19],8
same,"Plant response rating, Crabgrass",[9]; [20],10
same,Crabgrass plant response rating,[9]; [21],10
same,Crabgrass plant response rating,[9]; [22],3
same,Crabgrass plant response rating,[9]; [23],9
same,Nutsedge plant response rating,[10]; [16],0
same,Nutsedge plant response rating,[10]; [17],0
same,Nutsedge plant response rating,[10]; [18],0
same,"Plant response rating, Nutsedge",[10]; [19],0
same,"Plant response rating, Nutsedge",[10]; [20],0
same,Nutsedge plant response rating,[10]; [21],0
same,Nutsedge plant response rating,[10]; [22],0
same,Nutsedge plant response rating,[10]; [23],0
same,Giant foxtail plant response rating,[11]; [16],0
same,Giant foxtail plant response rating,[11]; [17],3
same,Giant foxtail plant response rating,[11]; [18],8
same,"Plant response rating, Giant foxtail",[11]; [19],9
same,"Plant response rating, Giant foxtail",[11]; [20],10
same,Giant foxtail plant response rating,[11]; [21],10
same,Giant foxtail plant response rating,[11]; [22],2
same,Giant foxtail plant response rating,[11]; [23],6
same,Wild oats plant response rating,[12]; [16],0
same,Wild oats plant response rating,[12]; [17],0
same,Wild oats plant response rating,[12]; [18],0
same,"Plant response rating, Wild oats",[12]; [19],0
same,"Plant response rating, Wild oats",[12]; [20],4
same,Wild oats plant response rating,[12]; [21],3
same,Wild oats plant response rating,[12]; [22],0
same,Wild oats plant response rating,[12]; [23],3
same,Wheat plant response rating,[13]; [16],0
same,Wheat plant response rating,[13]; [17],0
same,Wheat plant response rating,[13]; [18],0
same,"Plant response rating, Wheat",[13]; [19],0
same,"Plant response rating, Wheat",[13]; [20],0
same,Wheat plant response rating,[13]; [21],0
same,Wheat plant response rating,[13]; [22],0
same,Wheat plant response rating,[13]; [23],2
same,Bedstraw plant response rating,[14]; [16],2
same,Bedstraw plant response rating,[14]; [17],6
same,Bedstraw plant response rating,[14]; [18],0
same,"Plant response rating, Bedstraw",[14]; [19],0
same,"Plant response rating, Bedstraw",[14]; [20],0
same,Bedstraw plant response rating,[14]; [21],3
same,Bedstraw plant response rating,[14]; [22],4
same,Bedstraw plant response rating,[14]; [23],8
same,Morningglory plant response rating,[15]; [16],4
same,Morningglory plant response rating,[15]; [17],7
same,Morningglory plant response rating,[15]; [18],0
same,"Plant response rating, Morningglory",[15]; [19],0
same,"Plant response rating, Morningglory",[15]; [20],0
same,Morningglory plant response rating,[15]; [21],0
same,Morningglory plant response rating,[15]; [22],7
same,Morningglory plant response rating,[15]; [23],9

# From patent US6737383B1, “Herbicidal oxadiazolidines” (priority 1999, dated 2004)
